# Where two headings read alike, the source gives them in different places.
# Molecular target: T1, GLP-1 Receptor (GLP1R) (Homo sapiens, UniProt P43220)
# T1 construct: host or cells: HEK293/GLP1R/CRE-LUC
# Test: GLP-1R agonist cAMP stimulation assay (Method 3)
# Type: cell-based
# Conditions: HEK293/GLP1R/CRE-LUC cells (HDB), Method 3, 30 min incubation
# Description: Method 3: Activation of GLP-1 receptor is known to stimulate cyclic AMP (cAMP) production in cells which indicates primary coupling to the Gαs subunit of the G protein heterotrimeric complex.
# To optimize functional activity directed toward Gαs coupling, a HEK293/CRE-Luc cell line developed by HDB stably expressing the GLP-1 Receptor was used, 200× concentration of compound working solutions were prepared (Agilent Technologies Bravo) with 1/2 log serial dilution in 384-well Echo LDV plate (Labcyte, Cat #LP-0200). 50 nL/well 200× concentration of compound working solutions were moved to 384-well white low volume plate (Greiner, Cat #784075) using Labcyte ECHO550. 1×10^5 cells/mL HEK293/GLP1R/CRE-LUC(HD Biosciences) cell suspensions prepared with assay buffer [DPBS containing 0.5 mM IBMX (Sigma, Cat #15879) and 0.1% BSA (GENVIEW, Cat #FA016-100 g)], 10 μL cell suspensions were added to each well of previous generated assay plate which already contains 50 nL compound at 200× concentration using ThermoFisher Multidrop Combi (1000 cells/well). Seal the plate and incubate at 37° C. with 5% CO2 for 30 min.
# After incubation the cAMP assay signal was generated using cAMP dynamic 2 Kit (Cisbio). 5 μL cAMP-d2 working solution was added to each well, followed with 5 μL Anti-cAMP antibody-cryptate working solution added to each well using ThermoFisher Multidrop Combi. Incubate at room temperature for 1 hour protected from light. Read the fluorescence at 665 nm and 615 nm with Reader PerkinElmer EnVision.
# [1] = read-out: GLP1R cAMP Stimulation DR: EC50 (nM) [Species: Human, Assay Cell Line: HDB]
# [2] = read-out: GLP1R cAMP Stimulation DR: pEC50 (M) [Species: Human, Assay Cell Line: HDB] (converted)
# T1 sequence (P43220 24-463): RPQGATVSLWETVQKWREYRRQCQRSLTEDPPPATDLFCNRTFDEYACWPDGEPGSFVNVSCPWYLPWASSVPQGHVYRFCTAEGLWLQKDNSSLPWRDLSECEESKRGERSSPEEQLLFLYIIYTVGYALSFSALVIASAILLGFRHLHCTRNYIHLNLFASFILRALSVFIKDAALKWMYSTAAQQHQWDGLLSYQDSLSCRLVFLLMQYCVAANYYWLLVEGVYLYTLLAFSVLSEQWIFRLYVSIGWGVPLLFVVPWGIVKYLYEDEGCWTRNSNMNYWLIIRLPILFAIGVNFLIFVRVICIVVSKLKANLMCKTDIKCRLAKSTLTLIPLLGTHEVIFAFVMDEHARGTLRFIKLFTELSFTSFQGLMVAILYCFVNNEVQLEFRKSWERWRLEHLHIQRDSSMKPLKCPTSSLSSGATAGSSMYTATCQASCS
SMILES,EC50 [1] [nM],EC50 [2] [nM]
"Cc1cc(-n2nc3c(c2-n2ccn(-c4ccc(P(C)(C)=O)cc4F)c2=O)[C@H](C)N(C(=O)c2cc4cc(C5CCOCC5)ccc4n2[C@@]2(c4noc(=O)[nH]4)C[C@@H]2C)CC3)cc(C)c1F [Compound 122a, 3-((1S,2S)-1-(2-((S)-3-(3-(4-(dimethylphosphoryl)-2-fluorophenyl)-2-oxo-2,3-dihydro-1H-imidazol-1-yl)-2-(4-fluoro-3,5-dimethylphenyl)-4-methyl-4,5,6,7-tetrahydro-2H-pyrazolo[4,3-c]pyridine-5-carbonyl)-5-(tetrahydro-2H-pyran-4-yl)-1H-indol-1-yl)-2-methylcyclopropyl)-1,2,4-oxadiazol-5(4H)-one]",< 0.1,≤ 0.1
"Cc1cc(-n2nc3c(c2-n2ccn(-c4ccc(P(C)(C)=O)c(OC(F)(F)F)c4)c2=O)[C@H](C)N(C(=O)c2cc4cc(C5CCOCC5)ccc4n2[C@@]2(c4noc(=O)[nH]4)C[C@@H]2C)CC3)cc(C)c1F [Compound 123a, 3-((1S,2S)-1-(2-((S)-3-(3-(4-(dimethylphosphoryl)-3-(trifluoromethoxy)phenyl)-2-oxo-2,3-dihydro-1H-imidazol-1-yl)-2-(4-fluoro-3,5-dimethylphenyl)-4-methyl-4,5,6,7-tetrahydro-2H-pyrazolo[4,3-c]pyridine-5-carbonyl)-5-(tetrahydro-2H-pyran-4-yl)-1H-indol-1-yl)-2-methylcyclopropyl)-1,2,4-oxadiazol-5(4H)-one]",0.2 to 0.5,0.1 to 1
"Cc1cc(-n2ccn(-c3c4c(nn3-c3cc(C)c(F)c(C)c3)CCN(C(=O)c3cc5cc(C6CCOCC6)ccc5n3[C@@]3(c5noc(=O)[nH]5)C[C@@H]3C)[C@H]4C)c2=O)ccc1P(C)(C)=O [Compound 124a, 3-((1S,2S)-1-(2-((S)-3-(3-(4-(dimethylphosphoryl)-3-methylphenyl)-2-oxo-2,3-dihydro-1H-imidazol-1-yl)-2-(4-fluoro-3,5-dimethylphenyl)-4-methyl-4,5,6,7-tetrahydro-2H-pyrazolo[4,3-c]pyridine-5-carbonyl)-5-(tetrahydro-2H-pyran-4-yl)-1H-indol-1-yl)-2-methylcyclopropyl)-1,2,4-oxadiazol-5(4H)-one]",< 0.1,≤ 0.1
"Cc1cc(-n2nc3c(c2-n2ccn(-c4ccc(P(C)(C)=O)c(N5CCOCC5)c4)c2=O)[C@H](C)N(C(=O)c2cc4cc(C5CCOCC5)ccc4n2[C@@]2(c4noc(=O)[nH]4)C[C@@H]2C)CC3)cc(C)c1F [Compound 125a, 3-((1S,2S)-1-(2-((S)-3-(3-(4-(dimethylphosphoryl)-3-morpholinophenyl)-2-oxo-2,3-dihydro-1H-imidazol-1-yl)-2-(4-fluoro-3,5-dimethylphenyl)-4-methyl-4,5,6,7-tetrahydro-2H-pyrazolo[4,3-c]pyridine-5-carbonyl)-5-(tetrahydro-2H-pyran-4-yl)-1H-indol-1-yl)-2-methylcyclopropyl)-1,2,4-oxadiazol-5(4H)-one]",0.2 to 0.5,0.1 to 1
"Cc1cc(-n2nc3c(c2-n2ccn(-c4ccc(P5(=O)CCN(C)CC5)cc4)c2=O)[C@H](C)N(C(=O)c2cc4cc(C5CCOCC5)ccc4n2[C@@]2(c4noc(=O)[nH]4)C[C@@H]2C)CC3)cc(C)c1F [Compound 126a, 3-((1S,2S)-1-(2-((S)-2-(4-fluoro-3,5-dimethylphenyl)-4-methyl-3-(3-(4-(1-methyl-4-oxido-1,4-azaphosphinan-4-yl)phenyl)-2-oxo-2,3-dihydro-1H-imidazol-1-yl)-4,5,6,7-tetrahydro-2H-pyrazolo[4,3-c]pyridine-5-carbonyl)-5-(tetrahydro-2H-pyran-4-yl)-1H-indol-1-yl)-2-methylcyclopropyl)-1,2,4-oxadiazol-5(4H)-one]",0.1 to 0.2,0.1 to 1
"Cc1cc(-n2nc3c(c2-n2ccn(-c4ccc(P5(=O)CCCC5)cc4)c2=O)[C@H](C)N(C(=O)c2cc4cc(C5CCOCC5)ccc4n2[C@@]2(c4noc(=O)[nH]4)C[C@@H]2C)CC3)cc(C)c1F [Compound 127a, 3-((1S,2S)-1-(2-((S)-2-(4-fluoro-3,5-dimethylphenyl)-4-methyl-3-(3-(4-(1-oxidophospholan-1-yl)phenyl)-2-oxo-2,3-dihydro-1H-imidazol-1-yl)-4,5,6,7-tetrahydro-2H-pyrazolo[4,3-c]pyridine-5-carbonyl)-5-(tetrahydro-2H-pyran-4-yl)-1H-indol-1-yl)-2-methylcyclopropyl)-1,2,4-oxadiazol-5(4H)-one]",< 0.1,≤ 0.1
"Cc1cc(-n2nc3c(c2-n2ccn(-c4ccc(P(=O)(C(C)C)C(C)C)cc4)c2=O)[C@H](C)N(C(=O)c2cc4cc(C5CCOCC5)ccc4n2[C@@]2(c4noc(=O)[nH]4)C[C@@H]2C)CC3)cc(C)c1F [Compound 128a, 3-((1S,2S)-1-(2-((S)-3-(3-(4-(diisopropylphosphoryl)phenyl)-2-oxo-2,3-dihydro-1H-imidazol-1-yl)-2-(4-fluoro-3,5-dimethylphenyl)-4-methyl-4,5,6,7-tetrahydro-2H-pyrazolo[4,3-c]pyridine-5-carbonyl)-5-(tetrahydro-2H-pyran-4-yl)-1H-indol-1-yl)-2-methylcyclopropyl)-1,2,4-oxadiazol-5(4H)-one]",< 0.1,≤ 0.1
"CCP(=O)(CC)c1ccc(-n2ccn(-c3c4c(nn3-c3cc(C)c(F)c(C)c3)CCN(C(=O)c3cc5cc(C6CCOCC6)ccc5n3[C@@]3(c5noc(=O)[nH]5)C[C@@H]3C)[C@H]4C)c2=O)cc1 [Compound 129a, 3-((1S,2S)-1-(2-((S)-3-(3-(4-(diethylphosphoryl)phenyl)-2-oxo-2,3-dihydro-1H-imidazol-1-yl)-2-(4-fluoro-3,5-dimethylphenyl)-4-methyl-4,5,6,7-tetrahydro-2H-pyrazolo[4,3-c]pyridine-5-carbonyl)-5-(tetrahydro-2H-pyran-4-yl)-1H-indol-1-yl)-2-methylcyclopropyl)-1,2,4-oxadiazol-5(4H)-one]",< 0.1,≤ 0.1

# Second part, the compound after the results:
EC50 [1] [nM],EC50 [2] [nM],SMILES
0.1 to 0.2,0.1 to 1,"CNc1cc(-n2ccn(-c3c4c(nn3-c3cc(C)c(F)c(C)c3)CCN(C(=O)c3cc5cc(C6CCOCC6)ccc5n3[C@@]3(c5noc(=O)[nH]5)C[C@@H]3C)[C@H]4C)c2=O)ccc1P(=O)(C1CC1)C1CC1 [Compound 132a, 3-((1S,2S)-1-(2-((S)-3-(3-(4-(dicyclopropylphosphoryl)-3-(methylamino)phenyl)-2-oxo-2,3-dihydro-1H-imidazol-1-yl)-2-(4-fluoro-3,5-dimethylphenyl)-4-methyl-4,5,6,7-tetrahydro-2H-pyrazolo[4,3-c]pyridine-5-carbonyl)-5-(tetrahydro-2H-pyran-4-yl)-1H-indol-1-yl)-2-methylcyclopropyl)-1,2,4-oxadiazol-5(4H)-one]"
0.1 to 0.2,0.1 to 1,"CCP(=O)(CC)c1ccc(-n2ccn(-c3c4c(nn3-c3cc(C)c(F)c(C)c3)CCN(C(=O)c3cc5cc(C6CCC(F)(F)CC6)ccc5n3[C@@]3(c5noc(=O)[nH]5)C[C@@H]3C)[C@H]4C)c2=O)cc1NC [Compound 133a, 3-((1S,2S)-1-(2-((S)-3-(3-(4-(diethylphosphoryl)-3-(methylamino)phenyl)-2-oxo-2,3-dihydro-1H-imidazol-1-yl)-2-(4-fluoro-3,5-dimethylphenyl)-4-methyl-4,5,6,7-tetrahydro-2H-pyrazolo[4,3-c]pyridine-5-carbonyl)-5-(4,4-difluorocyclohexyl)-1H-indol-1-yl)-2-methylcyclopropyl)-1,2,4-oxadiazol-5(4H)-one]"
< 0.1,≤ 0.1,"CCP(=O)(CC)c1ccc(-n2ccn(-c3c4c(nn3-c3cc(C)c(F)c(C)c3)CCN(C(=O)c3cc5cc(C6CCOCC6)ccc5n3C3(c5noc(=O)[nH]5)CC3)[C@H]4C)c2=O)cc1NC [Compound 135a, (S)-3-(1-(2-(3-(3-(4-(diethylphosphoryl)-3-(methylamino)phenyl)-2-oxo-2,3-dihydro-1H-imidazol-1-yl)-2-(4-fluoro-3,5-dimethylphenyl)-4-methyl-4,5,6,7-tetrahydro-2H-pyrazolo[4,3-c]pyridine-5-carbonyl)-5-(tetrahydro-2H-pyran-4-yl)-1H-indol-1-yl)cyclopropyl)-1,2,4-oxadiazol-5(4H)-one]"
0.2 to 0.5,0.1 to 1,"CCP(=O)(CC)c1ccc(-n2ccn(-c3c4c(nn3-c3cc(C)c(F)c(C)c3)CCN(C(=O)c3cc5cc(C6CCOCC6)ccc5n3[C@@]3(c5noc(=O)[nH]5)C[C@@H]3C)[C@H]4C)c2=O)cc1OC(F)F [Compound 136a, 3-((1S,2S)-1-(2-((S)-3-(3-(4-(diethylphosphoryl)-3-(difluoromethoxy)phenyl)-2-oxo-2,3-dihydro-1H-imidazol-1-yl)-2-(4-fluoro-3,5-dimethylphenyl)-4-methyl-4,5,6,7-tetrahydro-2H-pyrazolo[4,3-c]pyridine-5-carbonyl)-5-(tetrahydro-2H-pyran-4-yl)-1H-indol-1-yl)-2-methylcyclopropyl)-1,2,4-oxadiazol-5(4H)-one]"

# From patent US20240366639A1, “HETEROCYCLIC GLP-1 AGONISTS” (GASHERBRUM BIO, INC., priority 2021, published 2024)
